Data set [1] in a line: Microsomal stability assay, mouse liver microsomes. In kind it is in vitro ADME. Conditions: NADPH. How it is done:
(§1) The in vitro microsomal stability assay was conducted in duplicate in mouse and human liver microsomal systems, which were supplemented with nicotinamide adenine dinucleotide phosphate (NADPH) as a cofactor. […] The reaction was initiated by addition of 1 mM NADPH, followed by incubation at 37° C. A negative control was performed in parallel in the absence of NADPH to measure any chemical instability or non-NADPH dependent enzymatic degradation for each compound. At various time points (0, 5, 15, 30, and 60 minutes), 1 volume of reaction aliquot was taken and quenched with 3 volumes of acetonitrile containing an appropriate internal standard and 0.1% formic acid. The samples were then vortexed and centrifuged at 15,000 rpm for 5 minutes at 4° C. The supernatants were collected and analyzed by LC-MS/MS to determine the in vitro metabolic half-life (t1/2).
In general terms: Liver microsomes are vesicles of endoplasmic reticulum, rich in cytochrome P450 enzymes.

Data set [2] is described as follows: Microsomal stability assay, human liver microsomes. It is filed as in vitro ADME. Conditions: for HLM half-life (t1/2) / half-life at 1 μM: 1 μM compound, NADPH. How it is done: as §1
A short description of data set [3]: Cytotoxicity in TZM-GFP cells (XTT). It is filed as cell-based. Conditions: human, 72 hours exposure, XTT. The protocol: (§2) The cytotoxicity of each compound was also determined in TZM-GFP cells. Cells were plated at a density of 1×10^4 cells per well in a 96-well plate and were continuously exposed to increasing concentrations of a compound for 72 hours. The number of viable cells in each well was determined using a Cell Proliferation Kit II (XTT), and 50% cytotoxicity concentration (CC50) values were determined. All the cell-based assays were conducted in duplicate and in at least two independent experiments. For the EC50 and CC50 dose responses, values were plotted in GraphPad Prism 5 and analyzed with the log (inhibitor) vs. normalized response-variable slope equation. Final values were calculated in each independent assay and the average values were determined. Statistical analysis (calculation of standard deviation) was performed by using Microsoft Excel.
In general terms: Tetrazolium assays rely on reduction of a dye to a coloured formazan, in cell work by metabolically active cells.

For data set [4], the target named is covalently-crosslinked hexameric CA A14C/E45C/W184A/M185A (CA121) (Human immunodeficiency virus type 1 group M subtype B, UniProt P12493, A146C/E177C/M317A/W316A). The experiment in a line: Thermal shift assay (TSA), CA hexamer stability. It is filed as binding, HIV-1. To be noted: compound 20 μM, ΔTm=Tm−T0 vs DMSO.
A further data set deals with HIV-1. The experiment in a line: Anti-HIV-1 activity in TZM-GFP cells (viral LTR-activated GFP expression). In kind it is cell-based. To be noted: for EC50: Human immunodeficiency virus 1, HIV-1 strain MOI=1, GFP positive cells counted after 48 hours; for inhibition at 2 µM: Human immunodeficiency virus 1, 2 μM compound; for inhibition at 2 µM / inhibition at 20 µM: HIV-1 MOI=1; for inhibition at 20 µM: Human immunodeficiency virus 1, 20 μM compound. How it is done:
The potency of HIV-1 inhibition by a compound was based on its inhibitory effect on viral LTR-activated GFP expression compared with that of compound-free (DMSO) controls. Briefly, TZM-GFP cells were plated at density of 1×10^4 cells per well in a 96-well plate. 24 hours later, media was replaced with increasing concentrations of compound. 24 hours post treatment, cells were exposed to an HIV-1 strain (MOI=1).
as §2

Setting [5] is: 1 μM compound, without Cobicistat.
The mark [6] stands for this setting: human liver microsomes, without Cobicistat.
[7] abbreviates: pH 7.4, 1 μM compound, without Cobicistat, read-out: MLM half-life (t1/2).
Setting [8] is: pH 7.4, with Cobicistat 0.5 μM (CYP3A inhibitor), 1 μM compound, with 0.5 μM Cobicistat (CYP3A inhibitor), read-out: MLM (+Cobi) half-life (t1/2).
Setting [9] is: pH 7.4, with Cobicistat 0.5 μM (CYP3A inhibitor), human liver microsomes, with 0.5 μM Cobicistat (CYP3A inhibitor), read-out: HLM (+Cobi) half-life (t1/2).
Setting [10] is: pH 7.4, human liver microsomes, without Cobicistat, read-out: HLM half-life (t1/2).

In the case of `CN(C(=O)[C@H](Cc1ccccc1)NC(=O)CNC(=O)c1ccccc1)c1ccccc1` [drawing 190], the “MLM half-life (t1/2)” value in data set [1] (setting [5]) is reported as 3.6 min. The “HLM half-life (t1/2)” value in data set [2] (setting [6]) came to 15 min.

Regarding `CN(C(=O)[C@H](Cc1ccccc1)NC(=O)Cc1cccc2ccccc12)c1ccc(Cl)cc1` [drawing 184], the half-life at 1 μM in data set [1] (setting [7]) came to 0.6 min; in data set [1] (setting [8]), 7.4 min; in data set [2] (setting [9]) it was 102 min; in data set [2] (setting [10]) it was 1.1 min.

For the compound `Cc1ccc(C)c2c1NC(=O)C2CC(=O)N[C@@H](Cc1ccccc1)C(=O)N(C)c1cccc(Cl)c1` (stereo partly drawn) [drawing 180], the half-life at 1 μM in data set [1] (setting [7]) was 1.4 min; in data set [1] (setting [8]), 34 min; in data set [2] (setting [9]) it was 107 min; in data set [2] (setting [10]) it was 6.7 min.

In the case of `Cc1cccc2c1NC(=O)C2CC(=O)N[C@@H](Cc1ccccc1)C(=O)N(C)c1ccccc1` (stereo partly drawn) [drawing 177], the half-life at 1 μM in data set [1] (setting [7]) worked out at 1 min; in data set [2] (setting [10]) it was 7 min.

As for `CN(C(=O)[C@H](Cc1ccccc1)NC(=O)Cc1cccc2ccccc12)c1ccccc1` [drawing 183], the half-life at 1 μM worked out at 0.5 min in data set [1] (setting [7]) and 0.6 min in data set [2] (setting [10]).

With `Cc1[nH]c2ccccc2c1CC(=O)N[C@@H](Cc1ccccc1)C(=O)N(C)c1ccccc1` [PF-74, reference compound], the “MLM half-life (t1/2)” value in data set [1] (setting [5]) is listed as 0.6 min; in data set [1] (1 μM compound, without Cobicistat, listed as PF74), “less than 1 min”. Besides, the “HLM half-life (t1/2)” value in data set [2] (setting [6]) is listed as “less than 1 min”.

Consider `CCN(C(=O)[C@H](Cc1ccccc1)NC(=O)CNC(=O)c1ccccc1)c1ccccc1` [drawing 194], for which, in data set [1] (1 μM compound, with 0.5 μM Cobicistat (CYP3A inhibitor)), the “MLM (+Cobi) half-life (t1/2)” value is given as 28 min. Further, the “MLM half-life (t1/2)” value in data set [1] (setting [5]) was found to be 2.4 min. For the same compound, the “HLM half-life (t1/2)” value in data set [2] (setting [6]) is 14 min. In addition, the half-life at 1 μM in data set [2] (setting [9]) amounted to 231 min.

On to `CN(C(=O)[C@H](Cc1ccccc1)NC(=O)CNC(=O)c1ccccc1)c1cccc(F)c1` [drawing 193], for which the “MLM half-life (t1/2)” value in data set [1] (setting [5]) worked out at 3.6 min. The “HLM half-life (t1/2)” value in data set [2] (setting [6]) turned out to be 12 min.

Broadly, the CC50 is the concentration that lowers cell viability or growth by half. Read a low CC50 as greater toxicity to the cells. A word on the EC50: it is the midpoint of the concentration-response curve. The compound `O=C(Cn1c(=O)[nH]c2ccccc2c1=O)N[C@@H](Cc1ccccc1)C(=O)N1CCC[C@H]1C(=O)Nc1ccccc1` [Example 33, (S)-1-((2-(2,4-dioxo-1,4-dihydroquinazolin-3(2H)-yl)acetyl)-L-phenylalanyl)-N-phenylpyrrolidine-2-carboxamide] had a CC50 at 72 h in data set [3] of over 100 µM. Moreover, the “TSA ΔTm (° C.)” value in data set [4] was determined as 2.5 °C. In addition, the “half-life in HLMs relative to PF74” value in data set [2] (human liver microsomes, ratio of t1/2 to that of PF74) turned out to be 44 fold. Also, in data set [2] (setting [9]), the half-life at 1 μM stood at 578 min. In addition, in data set [2] (with CYP3A inhibitor Cobicistat, microsome species not given), the “half-life in combination with Cobicistat compared with PF74” value is listed as “significantly longer half-life than that of PF74”. Also, in the data set with HIV-1, the concentration giving a half-maximal response (EC50) turned out to be 1600 ± 100 nM.

A word on the inhibition: it is how much of the control response was suppressed. High values mean a strong effect, low ones a weak effect. `CN(C(=O)[C@H](Cc1ccccc1)NC(=O)CNC(=O)c1ccccc1)c1cccc(F)c1` [Example 39, (S)—N-(2-((1-((3-fluorophenyl)(methyl)amino)-1-oxo-3-phenylpropan-2-yl)amino)-2-oxoethyl)benzamide] showed a CC50 at 72 h in data set [3] of over 50 µM. In data set [4], the “TSA ΔTm (° C.)” value was determined as 0 °C. Moreover, in the data set on HIV-1, the inhibition at 2 µM came to 3% and the inhibition at 20 µM was 94%.

In turn, `CN(C(=O)[C@H](Cc1ccccc1)NC(=O)CNC(=O)c1ccccc1)c1cccc(Cl)c1` [Example 37, (S)—N-(2-((1-((3-chlorophenyl)(methyl)amino)-1-oxo-3-phenylpropan-2-yl)amino)-2-oxoethyl)benzamide] showed a CC50 at 72 h in data set [3] of over 50 µM. For the same compound, the “TSA ΔTm (° C.)” value in data set [4] amounted to 2.0 °C. Further, in the data set with HIV-1, the inhibition at 2 µM was 40% and the inhibition at 20 µM stood at 95%.

Compound `CN(C(=O)[C@H](Cc1ccccc1)NC(=O)Cc1cccc2ccccc12)c1cccc(F)c1` [Example 20, (S)—N-(3-fluorophenyl)-N-methyl-2-(2-(naphthalen-1-yl)acetamido)-3-phenylpropanamide] came in with a CC50 at 72 h in data set [3] of under 50 µM. In addition, in data set [4], the “TSA ΔTm (° C.)” value was found to be 5.4 °C. Moreover, in the data set on HIV-1, testing at 2 µM gave an inhibition of 44% and 20 µM produced 97% inhibition.

In the case of `CN(C(=O)[C@H](Cc1ccccc1)NC(=O)Cc1ccc2ccccc2c1)c1ccccc1` [Example 10, (S)—N-methyl-2-(2-(naphthalen-2-yl)acetamido)-N,3-diphenylpropanamide], the CC50 at 72 h in data set [3] is under 50 µM. The “TSA ΔTm (° C.)” value in data set [4] stood at 4.8 °C. In the data set on HIV-1, the inhibition at 2 µM was determined as 40% and at 20 µM the inhibition was 98%.

In data set [3], `Cc1cccc2c1NC(=O)C2CC(=O)N[C@@H](Cc1ccccc1)C(=O)N(C)c1cccc(Cl)c1` (stereo partly drawn) [Example 3, (2S)—N-(3-chlorophenyl)-N-methyl-2-(2-(7-methyl-2-oxoindolin-3-yl)acetamido)-3-phenylpropanamide] registered a CC50 at 72 h of over 100 µM. Further, the “TSA ΔTm (° C.)” value in data set [4] was −1.7 °C. The 50% effective concentration (EC50) in the data set with HIV-1 stood at 3300 ± 300 nM.

Compound `CN(C(=O)[C@H](Cc1ccccc1)NC(=O)Cc1cccc2ccccc12)c1ccc(Cl)cc1` [Example 18, (S)—N-(4-chlorophenyl)-N-methyl-2-(2-(naphthalen-1-yl)acetamido)-3-phenylpropanamide] yielded a cytotoxic concentration (CC50) at 72 h in data set [3] of under 50 µM. Further, the “TSA ΔTm (° C.)” value in data set [4] came to 7.2 °C. This compound had a concentration for a half-maximal effect (EC50) with HIV-1 of 830 ± 30 nM.

In data set [3], `Cc1cn(CC(=O)N[C@@H](Cc2ccccc2)C(=O)N(C)c2cccc(Br)c2)c(=O)[nH]c1=O` [Example 48, (S)—N-(3-bromophenyl)-N-methyl-2-(2-(5-methyl-2,4-dioxo-3,4-dihydropyrimidin-1(2H)-yl)acetamido)-3-phenylpropanamide] gave a cytotoxic concentration (CC50) at 72 h of over 50 µM. The “TSA ΔTm (° C.)” value in data set [4] stood at 0.5 °C. In the data set with HIV-1, this compound displayed an inhibition at 2 µM of 22% and an inhibition at 20 µM of 99.7%.

In the case of `CN(C(=O)[C@H](Cc1ccccc1)NC(=O)Cn1c(=O)[nH]c2ccccc2c1=O)c1ccc(F)cc1` [Example 32, (S)-2-(2-(2,4-dioxo-1,4-dihydroquinazolin-3(2H)-yl)acetamido)-N-(4-fluorophenyl)-N-methyl-3-phenylpropanamide], in data set [3], the CC50 at 72 h is over 100 µM. Moreover, the “TSA ΔTm (° C.)” value in data set [4] stood at 2.4 °C. Moreover, in the data set with HIV-1, it took 8000 ± 1300 nM to reach a half-maximal effect (EC50).

The compound `CN(C(=O)[C@H](Cc1ccccc1)NC(=O)CNC(=O)c1ccccc1)c1ccc(F)cc1` [Example 38, (S)—N-(2-((1-((4-fluorophenyl)(methyl)amino)-1-oxo-3-phenylpropan-2-yl)amino)-2-oxoethyl)benzamide] came in with a CC50 at 72 h in data set [3] of over 50 µM. The “TSA ΔTm (° C.)” value in data set [4] is 2.2 °C. Besides, in the data set with HIV-1, at 2 µM the inhibition was 12% and testing at 20 µM gave an inhibition of 97%.

Compound `CN(C(=O)[C@H](Cc1ccccc1)NC(=O)Cc1ccc2ccccc2c1)c1cccc(F)c1` [Example 14, (S)—N-(3-fluorophenyl)-N-methyl-2-(2-(naphthalen-2-yl)acetamido)-3-phenylpropanamide] yielded a 50% cytotoxic concentration (CC50) at 72 h in data set [3] of under 50 µM. The “TSA ΔTm (° C.)” value in data set [4] amounted to 5.2 °C. In the data set with HIV-1, the inhibition at 2 µM stood at 0% and the inhibition at 20 µM was determined as 97%.

As to `Cc1ccc(C)c2c1NC(=O)C2CC(=O)N[C@@H](Cc1ccccc1)C(=O)N(C)c1ccccc1` (stereo partly drawn) [Example 5, (2S)-2-(2-(4,7-dimethyl-2-oxoindolin-3-yl)acetamido)-N-methyl-N,3-diphenylpropanamide], the CC50 at 72 h in data set [3] was over 100 µM. For the same compound, the “TSA ΔTm (° C.)” value in data set [4] was −1.8 °C. This compound also registered an EC50 with HIV-1 of 4900 ± 300 nM.

`CN(C(=O)[C@H](Cc1ccccc1)NC(=O)CN1C(=O)NC2(CCCCC2)C1=O)c1ccc(Cl)cc1` [Example 27, N-(4-chlorophenyl)-2-(2-(2,4-dioxo-1,3-diazaspiro[4.5]decan-3-yl)acetamido)-N-methyl-3-phenylpropanamide] had a CC50 at 72 h in data set [3] of over 100 µM. In addition, the “TSA ΔTm (° C.)” value in data set [4] came to 2.2 °C. In addition, in the data set with HIV-1, the concentration for a half-maximal effect (EC50) stood at 2500 ± 500 nM.

The values above are taken from patent publication US11850247B2, “Antiviral compounds” (REGENTS OF THE UNIVERSITY OF MINNESOTA, priority 2020, dated 2023).
